Article PMC6749389, “Synthesis and In Vitro Anti-Toxoplasma gondii Activity of Novel Thiazolidin-4-one Derivatives” (Molecules, 2019)

What was measured:
[1] = Cytotoxic assay (MTT, ISO 10993-5:2009(E)), 24 h treatment; format: cell-based; conditions: L929 mouse fibroblast cells, L929 mouse fibroblasts, values above highest tested concentration extrapolated
Description: The L929 mouse fibroblast (ATTC® CCL-1™, Manassas, VA, USA) were culturing according to the ATCC product sheet. […] The cell viability assay were performed precisely according to international standards (ISO 10993-5:2009(E)), using the tetrazolium salt [3-(4,5-dimethylthiazol-2-yl)-2,5-diphenyltetrazolium bromide] (MTT, Sigma-Aldrich) and mouse fibroblasts L929 cells. Cells (1 × 10^4 per well) were treated 24 h with compounds or drug in different concentration range. The optical density at 570 nm on the ELISA reader (Multiskan EX, Labsystems, Vienna, VA, USA), was read. The results were expressed as a percentage of viability compared to untreated cells. […] The CC30/CC50 represents the concentration of tested compounds or drugs that was required for 30% or 50% cells proliferation inhibition in vitro. According to the previously mentioned ISO 10993-5:2009(E) norm, the CC30 value is recognized as non-cytotoxic concentration for the cell line. All experiments were performed in triplicate.

Compound	melting point [°C]	CC50 at 24 h [1] [µM]
O=C1CSC(=NN=Cc2cccc(O)c2)N1c1ccccc1 [Compound 42, 2-{[(3-Hydroxyphenyl)methylidene]hydrazinylidene}-3-phenyl-1,3-thiazolidin-4-one]	235 to 236	234
O=C1CSC(=NN=Cc2ccc(O)cc2)N1c1ccccc1 [Compound 43, 2-{[(4-Hydroxyphenyl)methylidene]hydrazinylidene}-3-phenyl-1,3-thiazolidin-4-one]		485
CCOc1cc(C=NN=C2SCC(=O)N2c2ccccc2)ccc1O [Compound 45, 2-{[(3-Ethoxy-4-hydroxyphenyl)methylidene]hydrazinylidene}-3-phenyl-1,3-thiazolidin-4-one]	229 to 230	
O=C1CSC(=NN=Cc2ccccc2O)N1c1ccccc1Cl [Compound 48, 3-(2-Chlorophenyl)-2-{[(2-hydroxyphenyl)methylidene]hydrazinylidene}-1,3-thiazolidin-4-one]	168 to 170	
O=C1CSC(=NN=Cc2cccc(O)c2)N1c1ccccc1Cl [Compound 49, 3-(2-Chlorophenyl)-2-{[(3-hydroxyphenyl)methylidene]hydrazinylidene}-1,3-thiazolidin-4-one]	192 to 194	188
O=C1CSC(=NN=Cc2ccc(O)cc2)N1c1ccccc1Cl [Compound 50, 3-(2-Chlorophenyl)-2-{[(4-hydroxyphenyl)methylidene]hydrazinylidene}-1,3-thiazolidin-4-one]	178 to 180	226
CCOc1cc(C=NN=C2SCC(=O)N2c2ccccc2Cl)ccc1O [Compound 51, 3-(2-Chlorophenyl)-2-{[(3-ethoxy-4-hydroxyphenyl)methylidene]hydrazinylidene}-1,3-thiazolidin-4-one]	196 to 198	
O=C1CSC(=NN=Cc2ccccc2O)N1c1cccc(Cl)c1 [Compound 52, 3-(3-Chlorophenyl)-2-{[(2-hydroxyphenyl)methylidene]hydrazinylidene}-1,3-thiazolidin-4-one]	194 to 196	
COc1cc(C=NN=C2SCC(=O)N2c2ccc(Cl)cc2Cl)ccc1O [Compound 64, 3-(2,4-Dichlorophenyl)-2-{[(4-hydroxy-3-methoxyphenyl)methylidene]hydrazinylidene}-1,3-thiazolidin-4-one]	140 to 142	
O=C1CSC(=NN=Cc2ccc(O)cc2)N1c1ccc(F)cc1 [Compound 69, 3-(4-Fluorophenyl)-2-{[(4-hydroxyphenyl)methylidene]hydrazinylidene}-1,3-thiazolidin-4-one]		386
O=C(O)CC1SC(=NN=Cc2ccccc2O)N(c2ccccc2)C1=O (centres unmarked) [Compound 74, [2-{[(2-Hydroxyphenyl)methylidene]hydrazinylidene}-4-oxo-3-phenyl-1,3-thiazolidin-5-yl]acetic acid]	228 to 230	501
O=C(O)CC1SC(=NN=Cc2cccc(O)c2)N(c2ccccc2)C1=O (centres unmarked) [Compound 75, [2-{[(3-Hydroxyphenyl)methylidene]hydrazinylidene}-4-oxo-3-phenyl-1,3-thiazolidin-5-yl]acetic acid]	214 to 216	≥ 1000
O=C(O)CC1SC(=NN=Cc2ccc(O)cc2)N(c2ccccc2)C1=O (centres unmarked) [Compound 76, [2-{[(4-Hydroxyphenyl)methylidene]hydrazinylidene}-4-oxo-3-phenyl-1,3-thiazolidin-5-yl]acetic acid]	236 to 238	≥ 1000
COc1cc(C=NN=C2SC(CC(=O)O)C(=O)N2c2ccccc2)ccc1O (centres unmarked) [Compound 77, [2-{[(4-Hydroxy-3-methoxyphenyl)methylidene]hydrazinylidene}-4-oxo-3-phenyl-1,3-thiazolidin-5-yl]acetic acid]		≥ 1000

More lines, main results first:

melting point [°C]	Compound	CC50 at 24 h [1] [µM]
215 to 216	O=C1CSC(=NN=Cc2ccc(O)c(Cl)c2)N1c1ccccc1 [Compound 46, 2-{[(3-Chloro-4-hydroxyphenyl)methylidene]hydrazinylidene}-3-phenyl-1,3-thiazolidin-4-one]	
216 to 218	O=C1CSC(=NN=Cc2ccc(O)c(Br)c2)N1c1ccccc1 [Compound 47, 2-{[(3-Bromo-4-hydroxyphenyl)methylidene]hydrazinylidene}-3-phenyl-1,3-thiazolidin-4-one]	
198 to 200	O=C1CSC(=NN=Cc2cccc(O)c2)N1c1cccc(Cl)c1 [Compound 53, 3-(3-Chlorophenyl)-2-{[(3-hydroxyphenyl)methylidene]hydrazinylidene}-1,3-thiazolidin-4-one]	113
262 to 264	O=C1CSC(=NN=Cc2ccc(O)cc2)N1c1cccc(Cl)c1 [Compound 54, 3-(3-Chlorophenyl)-2-{[(4-hydroxyphenyl)methylidene]hydrazinylidene}-1,3-thiazolidin-4-one]	289
210 to 212	COc1cc(C=NN=C2SCC(=O)N2c2cccc(Cl)c2)ccc1O [Compound 55, 3-(3-Chlorophenyl)-2-{[(4-hydroxy-3-methoxyphenyl)methylidene]hydrazinylidene}-1,3-thiazolidin-4-one]	
214 to 216	CCOc1cc(C=NN=C2SCC(=O)N2c2cccc(Cl)c2)ccc1O [Compound 56, 3-(3-Chlorophenyl)-2-{[(3-ethoxy-4-hydroxyphenyl)methylidene]hydrazinylidene}-1,3-thiazolidin-4-one]	
238 to 240	O=C1CSC(=NN=Cc2ccccc2O)N1c1ccc(Cl)cc1 [Compound 57, 3-(4-Chlorophenyl)-2-{[(2-hydroxyphenyl)methylidene]hydrazinylidene}-1,3-thiazolidin-4-one]	
230 to 232	O=C1CSC(=NN=Cc2cccc(O)c2)N1c1ccc(Cl)cc1 [Compound 58, 3-(4-Chlorophenyl)-2-{[(3-hydroxyphenyl)methylidene]hydrazinylidene}-1,3-thiazolidin-4-one]	173
280 to 282	O=C1CSC(=NN=Cc2ccc(O)cc2)N1c1ccc(Cl)cc1 [Compound 59, 3-(4-Chlorophenyl)-2-{[(4-hydroxyphenyl)methylidene]hydrazinylidene}-1,3-thiazolidin-4-one]	318
226 to 228	COc1cc(C=NN=C2SCC(=O)N2c2ccc(Cl)cc2)ccc1O [Compound 60, 3-(4-Chlorophenyl)-2-{[(4-hydroxy-3-methoxyphenyl)methylidene]hydrazinylidene}-1,3-thiazolidin-4-one]	
218 to 220	CCOc1cc(C=NN=C2SCC(=O)N2c2ccc(Cl)cc2)ccc1O [Compound 61, 3-(4-Chlorophenyl)-2-{[(3-ethoxy-4-hydroxyphenyl)methylidene]hydrazinylidene}-1,3-thiazolidin-4-one]	
231 to 233	O=C1CSC(=NN=Cc2ccc(O)c(Cl)c2)N1c1ccc(Cl)cc1 [Compound 62, 2-{[(3-Chloro-4-hydroxyphenyl)methylidene]hydrazinylidene}-3-(4-chlorophenyl)-1,3-thiazolidin-4-one]	
235 to 236	O=C1CSC(=NN=Cc2ccc(O)c(Br)c2)N1c1ccc(Cl)cc1 [Compound 63, 2-{[(3-Bromo-4-hydroxyphenyl)methylidene]hydrazinylidene}-3-(4-chlorophenyl)-1,3-thiazolidin-4-one]	
242 to 244	O=C1CSC(=NN=Cc2cccc(O)c2)N1c1ccc(Br)cc1 [Compound 65, 3-(4-Bromophenyl)-2-{[(3-hydroxyphenyl)methylidene]hydrazinylidene}-1,3-thiazolidin-4-one]	83.5
288 to 290	O=C1CSC(=NN=Cc2ccc(O)cc2)N1c1ccc(Br)cc1 [Compound 66, 3-(4-Bromophenyl)-2-{[(4-hydroxyphenyl)methylidene]hydrazinylidene}-1,3-thiazolidin-4-one]	247
204 to 206	O=C1CSC(=NN=Cc2cccc(O)c2)N1c1ccc(F)cc1 [Compound 68, 3-(4-Fluorophenyl)-2-{[(3-hydroxyphenyl)methylidene]hydrazinylidene}-1,3-thiazolidin-4-one]	180
236 to 238	COc1cc(C=NN=C2SCC(=O)N2c2ccc(F)cc2)ccc1O [Compound 70, 3-(4-Fluorophenyl)-2-{[(4-hydroxy-3-methoxyphenyl)methylidene]hydrazinylidene}-1,3-thiazolidin-4-one]	
240 to 242	CCOc1cc(C=NN=C2SCC(=O)N2c2ccc(F)cc2)ccc1O [Compound 71, 2-{[(3-Ethoxy-4-hydroxyphenyl)methylidene]hydrazinylidene}-3-(4-fluorophenyl)-1,3-thiazolidin-4-one]	
222 to 224	O=C1CSC(=NN=Cc2ccc(O)c(Cl)c2)N1c1ccc(F)cc1 [Compound 72, 2-{[(3-Chloro-4-hydroxyphenyl)methylidene]hydrazinylidene}-3-(4-fluorophenyl)-1,3-thiazolidin-4-one]	
224 to 226	O=C1CSC(=NN=Cc2ccc(O)c(Br)c2)N1c1ccc(F)cc1 [Compound 73, 2-{[(3-Bromo-4-hydroxyphenyl)methylidene]hydrazinylidene}-3-(4-fluorophenyl)-1,3-thiazolidin-4-one]	
